Values of other authors in patent US5212175A, “Benzothiophenyl benzothiophenylalkyl-N-terminal amino hydroxy β-amino acid derivatives” (G. D. Searle & Co., priority 1991, dated 1993).
Square brackets hold non-standard residues; d marks the D form. Peptide text beside a SMILES is read from it. * marks the point of attachment. Sta = CC(C)C[C@H](N)[C@@H](O)CC(=O)O; Isovaleryl = CC(C)CC(=O)*

Legend:
renin = details: Umezawa et al, J. Antibiot. 1970
hog renin = details: after the injection of hog renin into nephrectomized rats; Gross et al, Science 1971
cathepsin D = details: Umezawa et al, J. Antibiot. 1970
pepsin = details: Umezawa et al, J. Antibiot. 1970
[1] = stated in words as a disadvantage

For `CC(C)CC(=O)N[C@H](C(=O)N[C@H](C(=O)N[C@@H](CC(C)C)[C@@H](O)CC(=O)N[C@@H](C)C(=O)N[C@@H](CC(C)C)[C@@H](O)CC(=O)O)C(C)C)C(C)C` [pepstatin] (Isovaleryl-VV[Sta]A[Sta]-OH), the inhibitor of renin (renin) is given as “inhibitor”, the “reduce blood pressure in vivo” value (hog renin) is given as “reduce blood pressure” and the “inhibitor of cathepsin D” value (cathepsin D) is given as “inhibitor”. For the same molecule, the inhibitor of pepsin (pepsin) was “inhibitor” and the solubility [1] was “low solubility”.
